Converted amounts (≈) assume the structure as drawn. Read-outs that look alike come from different tables or passages of the source.
Experiments:
Format in all cases: cell-based
[1] = tested on: Staphylococcus Aureus; test: MIC by Broth Dilution Method against Staphylococcus Aureus; settings: 37° C., visible growth
Experimental: Antimicrobial activity of several compounds was measured by determining the minimum inhibitory concentration (MIC). MIC is defined as the lowest concentration of an antimicrobial agent that will inhibit the growth of a microorganism and is usually expressed as ppm (μg/mL). MIC was determined by the Broth Dilution Method. To determine MIC a series of culture tubes was prepared, each tube containing the growth medium (Broth) with a decreasing concentration of the antimicrobial agent. The tubes were then inoculated with the test organism and incubated at 37° C. After incubation, tubes were visually examined for growth as indicated by turbidity. The lowest concentration that prevented visible growth is the MIC.

[2] = MIC in multiwell plate broth dilution, isolate SA22; settings: Staphylococcus aureus
Experimental: (§1) 1. The following Staphylococcus Aureus isolates were tested:
(§2) 2. 2-t-butyl-5-(4-t-butylphenyl)-phenol (DTBBP) was dissolved in ethanol to a concentration of 1000 μg/mL. Higher concentrations could not be tested due to the formation of precipitate in the broth when higher concentrations were attempted.
(§3) 3. 100 μl of the 32 μg/ml solution added to column 12 of the multiwell plates, 50 μl M—H broth to each of the other columns. 50 μl removed from 12 to 11 for 1:1 dilution, continued to column 2. 50 μl removed from column 2 and discarded. Column 1 contained no drug. To control for the amount of ethanol added to each well, additional wells were set up as described above without DTBBP but with the same amount of ethanol as the test wells.
(§4) 4. 50 μl bacteria added to each well going from column 1 to column 12. All isolates run in duplicate with and without DTBBP.
(§5) 5. Addition of 50 μl bacteria to 50 μl drug dilutes both 1:1 for a final bacterial density of 5×10^5/ml and drug concentrations of:
(§6) 6. Incubated overnight at 37° C.

[3] = tested on: Staphylococcus Aureus isolate SA76 (resistant to methicillin, azithromycin, clarithromycin, erythromycin, ciprofloxacin); test: MIC in multiwell plate broth dilution, isolate SA76
Experimental: as §1, §2, §3, §4, §5, §6

[4] = tested on: Staphylococcus Aureus isolate SA100 (resistant to methicillin only); test: MIC in multiwell plate broth dilution, isolate SA100
Experimental: as §1, §2, §3, §4, §5, §6

[5] = tested on: Staphylococcus Aureus isolate SA6 (susceptible to all drugs); test: MIC in multiwell plate broth dilution, isolate SA6
Experimental: as §1, §2, §3, §4, §5, §6

[6] = tested on: Staphylococcus Aureus isolate SA15 (susceptible); test: MIC in multiwell plate broth dilution, isolate SA15
Experimental: as §1, §2, §3, §4, §5, §6

[7] = tested on: Staphylococcus Aureus isolate SA124 (susceptible); test: MIC in multiwell plate broth dilution, isolate SA124
Experimental: as §1, §2, §3, §4, §5, §6

CC(C)(C)c1cc(C2CCCCC2)ccc1O [2-t-butyl-4-cyclohexylphenol]
MIC [1]: < 10 µg/mL

CCCCCCCCc1ccc(O)c(C(C)(C)C)c1 [2-t-butyl-4-n-octylphenol]
MIC [1]: < 10 µg/mL

CC(C)(C)c1ccc(C2CCC(C(C)(C)C)CC2)cc1O (stereo not shown) [2-t-butyl-5-(4-t-butylcyclohexyl)-phenol]
MIC [1]: < 10 µg/mL

CC(C)(C)c1ccc(-c2ccc(C(C)(C)C)c(O)c2)cc1 [DTBBP, 2-t-butyl-5-(4-t-butylphenyl)-phenol]
MIC [1]: < 1 µg/mL
MIC ([2]; isolate SA22, 24 hr, read-out: DTBBP MIC (24 hr)): 2 µg/mL (≈ 7.08 µM)
MIC ([2]; isolate SA22, 48 hr, read-out: DTBBP MIC (48 hr)): 2 µg/mL (≈ 7.08 µM)
MIC ([3]; isolate SA76, 24 hr, read-out: DTBBP MIC (24 hr)): 2 µg/mL (≈ 7.08 µM)
MIC ([3]; isolate SA76, 48 hr, read-out: DTBBP MIC (48 hr)): 4 µg/mL (≈ 14.2 µM)
MIC ([4]; isolate SA100, 24 hr, read-out: DTBBP MIC (24 hr)): 4 µg/mL (≈ 14.2 µM)
MIC ([4]; isolate SA100, 48 hr, read-out: DTBBP MIC (48 hr)): 4 µg/mL (≈ 14.2 µM)
MIC ([5]; isolate SA6, 24 hr, read-out: DTBBP MIC (24 hr)): 2 µg/mL (≈ 7.08 µM)
MIC ([5]; isolate SA6, 48 hr, read-out: DTBBP MIC (48 hr)): 4 µg/mL (≈ 14.2 µM)
MIC ([6]; isolate SA15, 24 hr, read-out: DTBBP MIC (24 hr)): 2 µg/mL (≈ 7.08 µM)
MIC ([6]; isolate SA15, 48 hr, read-out: DTBBP MIC (48 hr)): 4 µg/mL (≈ 14.2 µM)
MIC ([7]; isolate SA124, 24 hr, read-out: DTBBP MIC (24 hr)): 2 µg/mL (≈ 7.08 µM)
MIC ([7]; isolate SA124, 48 hr, read-out: DTBBP MIC (48 hr)): 4 µg/mL (≈ 14.2 µM)
